From article PMC9730589, “Characterization of a novel AA3_1 xylooligosaccharide dehydrogenase from Thermothelomyces myriococcoides CBS 398.93” (Biotechnology for Biofuels and Bioproducts, 2022)

System: T1, TmXdhA
T1 construct: native full gene from cDNA (578 residues, GMC dehydrogenase domain only, no cytochrome or CBM1); ORF start MQTASKL by primer; SEC-purified, contaminated with an A. niger hydrolase (A0A370CB09)
Test: spectrophotometric reduction of […],4-benzoquinone at […] nm, Michaelis-Menten fit
Format: biochemical, Thermothelomyces myriococcoides
Details: 1 mM 1,4-benzoquinone, 50 mM ammonium acetate pH 5.5, 30 °C

SMILES | Km
OC[C@H]1O[C@@H](O[C@H]2[C@H](O)[C@@H](O)[C@H](O[C@H]3[C@H](O)[C@@H](O)[C@H](O[C@H]4[C@H](O)[C@@H](O)C(O)O[C@@H]4CO)O[C@@H]3CO)O[C@@H]2CO)[C@H](O)[C@@H](O)[C@@H]1O (stereo partly drawn) [C4, Cellotetraose] | 530 ± 40 µM
OC[C@H]1O[C@@H](O[C@H]2[C@H](O)[C@@H](O)[C@H](O[C@H]3[C@H](O)[C@@H](O)C(O)O[C@@H]3CO)O[C@@H]2CO)[C@H](O)[C@@H](O)[C@@H]1O (stereo partly drawn) [C3, Cellotriose] | 430 ± 40 µM
OC1OC[C@@H](O[C@@H]2OC[C@@H](O[C@@H]3OC[C@@H](O[C@@H]4OC[C@@H](O)[C@H](O)[C@H]4O)[C@H](O)[C@H]3O)[C@H](O)[C@H]2O)[C@H](O)[C@H]1O (stereo partly drawn) [X4, Xylotetraose] | 130 ± 10 µM
OC[C@H]1O[C@@H](O[C@H]2[C@H](O)[C@@H](O)C(O)O[C@@H]2CO)[C@H](O)[C@@H](O)[C@@H]1O (stereo partly drawn) [C2, Cellobiose] | 360 ± 40 µM
OC1OC[C@@H](O[C@@H]2OC[C@@H](O)[C@H](O)[C@H]2O)[C@H](O)[C@H]1O (stereo partly drawn) [X2, Xylobiose] | 160 ± 10 µM
OC1OC[C@@H](O[C@@H]2OC[C@@H](O[C@@H]3OC[C@@H](O)[C@H](O)[C@H]3O)[C@H](O)[C@H]2O)[C@H](O)[C@H]1O (stereo partly drawn) [X3, Xylotriose] | 110 ± 10 µM
